Assays:
[1] = system: QD3-sbl (DNA, G4) TTAGGTGGGTAGGGTGGGCTAGTCATTTTGACTAGG; assay: ITC; details: 120 mM K+; 20 mM potassium phosphate, 100 mM KCl, pH 7.0, 5% DMSO, 40 °C; high-affinity site, two-site fit
[2] = system: QD3-sbl (DNA, G4) TTAGGTGGGTAGGGTGGGCTAGTCATTTTGACTAGG; assay: NMR solution structure; details: K+ (10 mM potassium phosphate); pH 7.0, 30 °C; about 2% DMSO-d6; intercalation at quadruplex-duplex junction
[3] = system: QD2-l (DNA, G4) GGTTGGCGCGAAGCATTCGCGGGTTGG; assay: NMR titration (imino protons, ROESY exchange); details: K+ (10 mM potassium phosphate), pH 7.0, 20 °C, 0.5 mM DNA, slow exchange, intercalation at junction

| SMILES | Ka [1] | binding [2] | binding [3] |
| --- | --- | --- | --- |
| CN(C)CCCNc1c2ccccc2nc2c1[nH]c1ccccc12 | (1.1±0.3) ⋅ 10^7 M^-1 | yes | yes |
| C[n+]1c2ccccc2cc2[nH]c3ccccc3c21 | (3.3±0.7) ⋅ 10^6 M^-1 |  |  |

Source: article PMC9303235 (2022)
